{"source": "patent US20080206311A1", "about": "“Sucrase Activity Inhibitor, Glucoamylase Activity Inhibitor and Food and Feed Containing the Same” (MITSUI SUGAR CO., LTD., priority 2005, published 2008)", "key": {"[1]": {"biological_target": "T1, sucrose-isomaltase complex (Rattus norvegicus, UniProt P23739)", "T1 construct": "tissue Sigma Corporation; host or cells: rat small intestine (acetone powder); papain treatment, 45-65% ammonium sulfate cut, dialysis, DEAE-Cellulose fraction with highest sucrase activity", "T1 sequence (P23739 33-1841 limits assumed, one chain of several)": "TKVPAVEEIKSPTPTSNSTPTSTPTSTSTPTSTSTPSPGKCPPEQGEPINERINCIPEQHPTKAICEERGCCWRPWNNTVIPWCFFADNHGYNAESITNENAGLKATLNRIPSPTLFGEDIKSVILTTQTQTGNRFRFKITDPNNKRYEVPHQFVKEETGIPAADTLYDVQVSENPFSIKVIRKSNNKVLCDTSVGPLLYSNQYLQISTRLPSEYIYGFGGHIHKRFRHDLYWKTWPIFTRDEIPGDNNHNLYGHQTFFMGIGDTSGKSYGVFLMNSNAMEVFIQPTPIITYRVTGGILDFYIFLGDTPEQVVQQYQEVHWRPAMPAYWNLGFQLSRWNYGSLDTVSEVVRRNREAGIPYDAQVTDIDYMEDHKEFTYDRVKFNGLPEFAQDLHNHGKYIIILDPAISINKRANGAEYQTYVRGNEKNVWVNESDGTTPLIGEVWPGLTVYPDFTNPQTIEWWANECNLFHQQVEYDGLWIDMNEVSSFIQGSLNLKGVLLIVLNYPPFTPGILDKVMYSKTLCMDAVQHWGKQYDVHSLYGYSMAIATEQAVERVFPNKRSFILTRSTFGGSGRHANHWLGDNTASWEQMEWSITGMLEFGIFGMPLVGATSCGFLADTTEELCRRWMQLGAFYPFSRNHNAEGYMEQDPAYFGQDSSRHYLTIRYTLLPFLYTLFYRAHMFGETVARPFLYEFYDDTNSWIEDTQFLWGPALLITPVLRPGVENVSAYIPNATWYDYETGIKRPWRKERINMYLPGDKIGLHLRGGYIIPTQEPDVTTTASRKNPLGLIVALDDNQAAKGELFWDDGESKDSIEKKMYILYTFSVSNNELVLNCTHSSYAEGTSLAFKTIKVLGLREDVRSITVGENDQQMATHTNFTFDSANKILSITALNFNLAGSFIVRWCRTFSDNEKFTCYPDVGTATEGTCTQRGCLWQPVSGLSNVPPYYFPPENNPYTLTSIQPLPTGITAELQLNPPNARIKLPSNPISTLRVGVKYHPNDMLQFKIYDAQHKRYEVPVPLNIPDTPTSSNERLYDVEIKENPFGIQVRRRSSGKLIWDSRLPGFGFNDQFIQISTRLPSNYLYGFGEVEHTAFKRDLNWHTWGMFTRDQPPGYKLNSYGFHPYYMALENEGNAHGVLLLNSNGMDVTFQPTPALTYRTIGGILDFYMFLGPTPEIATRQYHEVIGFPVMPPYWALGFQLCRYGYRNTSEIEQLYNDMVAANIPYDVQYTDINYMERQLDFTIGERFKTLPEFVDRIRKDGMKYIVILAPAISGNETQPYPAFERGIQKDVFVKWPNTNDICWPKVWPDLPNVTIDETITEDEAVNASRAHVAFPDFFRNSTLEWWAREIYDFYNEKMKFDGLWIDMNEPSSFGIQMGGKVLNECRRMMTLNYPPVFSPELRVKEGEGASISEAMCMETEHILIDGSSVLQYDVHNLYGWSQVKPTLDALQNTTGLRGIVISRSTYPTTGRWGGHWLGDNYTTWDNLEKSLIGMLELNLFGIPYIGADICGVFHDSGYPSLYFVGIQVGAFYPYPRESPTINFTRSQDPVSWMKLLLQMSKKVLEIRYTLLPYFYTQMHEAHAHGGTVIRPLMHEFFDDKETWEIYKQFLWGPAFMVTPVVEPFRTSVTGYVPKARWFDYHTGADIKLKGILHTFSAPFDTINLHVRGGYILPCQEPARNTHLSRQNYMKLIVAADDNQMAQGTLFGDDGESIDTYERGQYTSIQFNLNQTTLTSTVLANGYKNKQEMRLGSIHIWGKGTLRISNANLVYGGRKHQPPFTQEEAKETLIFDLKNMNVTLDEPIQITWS", "assay": "Confirmation test: decomposability of the sucrose-isomaltase complex (crude enzyme) on dextrin", "type": "biochemical", "settings": "37° C., 20 min", "description": "Decomposability of the sucrose-isomaltase complex on dextrin was investigated in order to confirm that decomposition of starch in the following Examples 4, 6 and 7 and Test Example 5 was attained by glucoamylase, but not by sucrose or isomaltase.\nA. Extraction of a crude enzyme, sucrose-isomaltase complex Twenty grams of rat small-intestinal acetone powder (ex Sigma Corporation) were added to 180 ml of 50 mM potassium phosphate buffer (pH 7.0) and extracted for 4 hours while slowly stirred at room temperature, to which 6.5 ml of a cysteine solution (100 mg/10 ml) and 1.5 ml of a papain solution (MP Biomedicals, LLC 80 mg/2 ml) were subsequently added and the mixture was incubated at 37° C. for 1 hour to conduct a papain treatment. Then, a supernatant was recovered by centrifugal separation (8000 rpm×15 min.) and further filtered by aspiration using Toyo Filter Paper No. 2 to obtain 164 ml of a crude enzyme solution. Protein was precipitated at an ammonium sulfate concentration of 45% from the crude enzyme solution and then a supernatant was recovered by centrifugal separation (8000 rpm×15 min.). Next, ammonium sulfate was added to the supernatant up to a concentration of 65% to precipitate protein, and then the precipitate was recovered by centrifugal separation (8000 rpm×15 min.). […] The enzymatic activity was measured for each fraction and the fraction with the highest activity of a sucrose-isomaltase complex was recovered to obtain a 12 ml crude enzyme solution. The sucrose-isomaltase complex activity was determined by measuring a decomposition activity for sucrose in each fraction. […] A glucose concentration was determined using the F-kit Glucose (ex Roche) described in item D below. […]\nA glucose concentration in each sample after the reaction was measured using the F-kit Glucose (ex Roche Corporation). A liberated glucose concentration (g/l) was calculated by subtracting a blank value (0.1 M phosphate buffer alone (pH 6.8)) and a concentration of glucose originally contained in the test sample (dextrin and sucrose) from the determined glucose concentration."}, "[2]": {"system": "small-intestinal enzyme liquid", "assay": "Decomposition of a saccharide alone (control solution) by small-intestinal enzyme liquid", "type": "biochemical, rat", "description": "(§1) Palatinose (trade name: Palatinose IC, ex Shin Mitsui Sugar Co., Ltd.) (test sample) was used as a sample for investigating each enzyme activity inhibitory effect. Maltose and sucrose were used as substrates for maltase and sucrose, respectively. The test sample and the substrates were dissolved in 0.1 M phosphate buffer (pH 6.8) at the concentration shown in Table 1 below to prepare test solutions (Solutions 4 and 5). Also, the test sample or the substrates were dissolved in 0.1 M phosphate buffer (pH 6.8), respectively to at the concentration shown in Table 1 below to prepare control solutions (Solution 1 for the test sample and Solutions 2 and 3 for the substrates).\n(§2) Two grams of rat small-intestinal acetone powder (ex Sigma Corporation) were dissolved in 20 ml of 0.1 M phosphate buffer (pH 6.8), left standing one day at 5° C., and subsequently subjected to centrifugal separation (8000 rpm×15 min.). The supernatant was filtered through a 0.8 μm membrane filter to obtain a small-intestinal enzyme liquid. This liquid contained a mixture of enzymes present in small intestine, such as sucrose, glucoamylase, maltase, and isomaltase.\n(§3) Each 0.25 ml of the small-intestinal enzyme liquid was added to each 5 ml of Solutions 1 through 5 and placed in a water bath at 37° C. to allow them to react for 60 min. while shaken at 60 strokes/min. After the reaction, they were heated in a boiling water bath for 3 min. for inactivation of the enzymes.\n(§4) The glucose concentration in each solution after the reaction was measured using the F-kit Glucose (ex Roche). A liberated glucose concentration (g/l) was calculated by subtracting the blank value (0.1 M phosphate buffer alone) and the concentration of glucose originally contained in the test sample from each glucose concentration measured.\nThe fructose concentration was measured using the F-kit Fructose (ex Roche). The liberated fructose concentration, g/l, was obtained by subtracting the blank value (0.1 M phosphate buffer alone) from the resultant fructose concentration.\nThe procedures in Example 1 were repeated with the exception that palatinit, palatinose or isomaltose was used as a test sample and lactose was used as a substrate. The test samples and the substrate were dissolved in 0.1 M phosphate buffer (pH 6.8) to attain the concentration shown in Table 5 to thereby prepare three test solutions. Besides, each of the test samples or the substrate was dissolved in 0.1 M phosphate buffer (pH 6.8) to attain the concentration shown in Table 5 to thereby prepare control solutions. Each 5 ml of the aforementioned test solutions and the control solutions was subjected to the enzymatic reaction according to the same procedures as in Example 1. The glucose concentration, the fructose concentration and the galactose concentration were measured. The galactose concentration was measured using F-kit Galactose (ex Roche). The liberated galactose concentration, g/l, was calculated by subtracting the blank value (0.1 M phosphate buffer alone) from the measured galactose concentration."}, "sucrase": {"biological_target": "T2, sucrase (Rattus norvegicus, UniProt P23739)", "T2 construct": "This liquid contained a mixture of enzymes present in small intestine, such as sucrose, glucoamylase, maltase, and isomaltase; tissue Sigma Corporation; host or cells: rat small intestine (acetone powder), buffer extract, unpurified", "T2 sequence (P23739 whole entry)": "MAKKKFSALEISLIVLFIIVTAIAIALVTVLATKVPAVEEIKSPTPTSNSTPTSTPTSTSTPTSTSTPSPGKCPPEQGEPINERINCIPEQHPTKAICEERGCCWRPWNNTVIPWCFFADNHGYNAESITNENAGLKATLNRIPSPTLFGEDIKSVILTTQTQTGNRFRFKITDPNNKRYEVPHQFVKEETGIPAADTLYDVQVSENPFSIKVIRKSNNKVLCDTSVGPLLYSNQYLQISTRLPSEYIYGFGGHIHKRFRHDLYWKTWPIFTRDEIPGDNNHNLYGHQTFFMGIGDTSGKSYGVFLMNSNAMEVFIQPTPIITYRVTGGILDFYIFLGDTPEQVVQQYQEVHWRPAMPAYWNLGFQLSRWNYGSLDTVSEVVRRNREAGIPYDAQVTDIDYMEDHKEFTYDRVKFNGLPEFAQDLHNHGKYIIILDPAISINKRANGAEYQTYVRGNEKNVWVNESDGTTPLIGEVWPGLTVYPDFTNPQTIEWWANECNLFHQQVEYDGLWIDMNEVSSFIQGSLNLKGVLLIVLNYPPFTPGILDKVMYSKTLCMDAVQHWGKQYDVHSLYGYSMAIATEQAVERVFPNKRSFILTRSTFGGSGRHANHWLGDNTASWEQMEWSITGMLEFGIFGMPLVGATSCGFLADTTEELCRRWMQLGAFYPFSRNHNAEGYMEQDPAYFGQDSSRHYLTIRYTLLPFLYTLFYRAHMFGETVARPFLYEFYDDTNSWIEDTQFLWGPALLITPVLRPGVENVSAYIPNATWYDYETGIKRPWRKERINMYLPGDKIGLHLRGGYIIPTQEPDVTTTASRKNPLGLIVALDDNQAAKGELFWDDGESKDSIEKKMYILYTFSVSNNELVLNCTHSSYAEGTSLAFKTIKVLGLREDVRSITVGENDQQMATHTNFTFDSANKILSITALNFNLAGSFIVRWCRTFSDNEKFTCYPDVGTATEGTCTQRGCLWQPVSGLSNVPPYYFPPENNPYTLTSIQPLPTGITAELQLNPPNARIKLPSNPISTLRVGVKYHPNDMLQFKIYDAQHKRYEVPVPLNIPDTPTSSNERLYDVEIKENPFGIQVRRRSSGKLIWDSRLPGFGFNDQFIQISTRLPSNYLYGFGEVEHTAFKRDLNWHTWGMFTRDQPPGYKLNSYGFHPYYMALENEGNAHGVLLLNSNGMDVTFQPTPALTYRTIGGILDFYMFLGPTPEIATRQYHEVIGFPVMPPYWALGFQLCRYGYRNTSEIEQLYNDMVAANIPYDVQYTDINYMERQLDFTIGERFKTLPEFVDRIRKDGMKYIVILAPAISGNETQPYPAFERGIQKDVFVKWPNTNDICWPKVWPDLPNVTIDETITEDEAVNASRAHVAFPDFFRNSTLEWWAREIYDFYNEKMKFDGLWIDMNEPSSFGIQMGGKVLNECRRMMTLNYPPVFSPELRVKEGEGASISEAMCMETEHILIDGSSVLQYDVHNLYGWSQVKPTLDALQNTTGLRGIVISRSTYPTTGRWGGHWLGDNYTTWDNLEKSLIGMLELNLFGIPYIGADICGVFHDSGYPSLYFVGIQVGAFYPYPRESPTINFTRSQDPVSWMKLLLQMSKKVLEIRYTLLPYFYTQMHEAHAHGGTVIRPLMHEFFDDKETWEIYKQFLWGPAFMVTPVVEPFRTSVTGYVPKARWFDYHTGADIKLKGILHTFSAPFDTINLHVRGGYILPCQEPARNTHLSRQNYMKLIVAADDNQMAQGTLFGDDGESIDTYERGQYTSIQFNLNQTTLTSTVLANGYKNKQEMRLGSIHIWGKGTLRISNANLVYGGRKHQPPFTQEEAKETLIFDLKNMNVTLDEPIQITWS", "assay": "Sucrase activity inhibition with rat small-intestinal enzyme liquid, substrate sucrose", "type": "biochemical", "settings": "5% sucrose + 5% test sample", "description": "as §1, §2, §3, §4\n(§5) Next, each of the liberated glucose concentration was input in the following equation to obtain decomposition inhibition ratio for maltase and sucrose. In the present tests, the substrates and the inhibitors were decomposed by enzymes present in the small-intestinal enzyme liquid. However, the enzymes decomposing the substrates are different from the enzymes decomposing the inhibitors. The decomposition inhibition ratio was determined as a measure for the inhibitory effect. When the inhibitor was added, the glucose concentration was lower than that seen when the substrate alone was reacted. A higher decomposition inhibition ratio means a stronger inhibitory effect.\n(§6) Decomposition inhibition ratio,%={(A+B)−(AB)}+(A+B)×100 [Equation 1]\n(§7) wherein (A+B) indicates a sum of a liberated glucose concentration in the control solution containing the test sample alone after the reaction (A) and a liberated glucose concentration in the control solution containing the substrate alone after the reaction (B); and (AB) indicates a liberated glucose concentration in the test solution containing the test sample (A) and the substrate (B), after the reaction.\nThe procedures in Example 1 were repeated with the exception that the test solutions contained 5% of sucrose and 0.5%, 1.0%, 3.0% or 5.0% of palatinose to examine intensity of the sucrose activity inhibition. A control solution contained 5% of sucrose in 0.1 M phosphate buffer (pH 6.8).\nThe procedures in Example 1 were repeated with the exception that palatinit and palatinose were used as test samples and sucrose was used as a substrate. The test samples and the substrate were dissolved in 0.1 M phosphate buffer (pH 6.8) to attain the concentration shown in Table 3 to thereby prepare two test solutions. Besides, each one of the test samples or the substrate was dissolved in 0.1 M phosphate buffer (pH 6.8) to attain the concentration shown in Table 3 to thereby prepare control solutions. Each 5 ml of the aforementioned test solutions or the control solutions was subjected to the enzymatic reaction according to the same procedures as in Example 1. The glucose concentration and the fructose concentration were measured. […]"}, "glucoamylase": {"system": "glucoamylase", "assay": "Glucoamylase activity inhibition with rat small-intestinal enzyme liquid, substrate soluble starch", "type": "biochemical", "settings": "5% soluble starch + 5% test sample", "description": "as §2, §3, §4, §5, §6, §7\nThe procedures in Example 1 were repeated with the exception that palatinose and palatinit were used as a test sample and soluble starch was used as a substrate. The test samples and the substrate were dissolved in 0.1 M phosphate buffer (pH 6.8) to attain the concentration shown in Table 6 to thereby prepare two test solutions. Besides, each of the test samples or the substrate was dissolved in 0.1 M phosphate buffer (pH 6.8) to attain the concentration shown in Table 6 to thereby prepare control solutions. Each 5 ml of the aforementioned test solutions and the control solutions was subjected to the enzymatic reaction according to the same procedures as in Example 1 and the liberated glucose concentration and the decomposition inhibition ratio were measured.\nThe procedures in Example 1 were repeated with the exception that trehalulose was used as a test sample and soluble starch was used as a substrate. The test sample and the substrate were dissolved in 0.1 M phosphate buffer (pH 6.8) to attain the concentration shown in Table 9 to thereby prepare a test solution. Besides, the test sample or the substrate was dissolved in 0.1 M phosphate buffer (pH 6.8) to attain the concentration shown in Table 9 to thereby prepare control solutions. Each 5 ml of the aforementioned test solution and the control solutions was subjected to the enzymatic reaction according to the same procedures as in Example 1 and the liberated glucose concentration and the decomposition inhibition ratio were measured.\nThe procedures in Example 1 were repeated with the exception that trehalose was used as a test sample and soluble starch was used as a substrate. […]"}, "[3]": {"biological_target": "(Homo sapiens, UniProt P14410)", "settings": "5-75 mM sucrose as substrate, 5 mM trehalulose as inhibitor; cited from earlier work"}, "[4]": {"settings": "crude enzyme liquid 0.125 ml, dextrin 2% (Sample 1) or sucrose 26.6 mM (Sample 3)"}, "[5]": {"settings": "5% saccharide alone, Example 3 / Test Examples 2, 3"}, "[6]": {"settings": "5% saccharide alone, Example 5 / Test Example 4"}}, "data": [{"compound": "dextrin", "values": [{"measurement": "Mean amount of produced glucose", "setting": "[1]; [4]", "value": 0.057, "unit": "g/L"}, {"measurement": "Mean amount of produced glucose", "setting": "[1]; crude enzyme liquid 0.25 ml, dextrin 2% (Sample 2)", "value": 0.088, "unit": "g/L"}]}, {"compound": "OC[C@H]1O[C@@](CO)(O[C@H]2O[C@H](CO)[C@@H](O)[C@H](O)[C@H]2O)[C@@H](O)[C@@H]1O", "note": "[sucrose]", "values": [{"measurement": "Liberated glucose concentration", "setting": "[2]; 5% saccharide alone, 37° C., 60 min, pH 6.8, Example 1 / Test Example 1", "value": "0.959 ± 0.022", "unit": "g/L"}, {"measurement": "Liberated fructose concentration", "setting": "[2]; [5]", "value": 1.09, "unit": "g/L"}, {"measurement": "Liberated glucose concentration", "setting": "[2]; [5]", "value": 1.01, "unit": "g/L"}, {"measurement": "Liberated glucose concentration", "setting": "[2]; [6]", "value": 1.628, "unit": "g/L"}, {"measurement": "Total concentration of liberated monosaccharides (glucose + fructose)", "setting": "[2]; control solution with sucrose only, 5%", "value": 2.10, "unit": "g/L"}, {"measurement": "Mean amount of produced glucose", "setting": "[1]; [4]", "value": 0.474, "unit": "g/L"}]}, {"compound": "trehalulose", "values": [{"measurement": "Sucrase activity inhibitory effect (in words)", "setting": "sucrase", "value": "has the sucrose activity inhibitory effect"}, {"measurement": "Decomposition inhibition ratio, %, against sucrase", "setting": "sucrase; Example 5 / Test Example 4", "value": 36, "unit": "%"}, {"measurement": "Liberated glucose concentration", "setting": "sucrase; Example 5 / Test Example 4", "value": 1.403, "unit": "g/L"}, {"measurement": "Glucoamylase activity inhibitory effect (in words)", "setting": "glucoamylase", "value": "has a glucoamylase activity inhibitory effect"}, {"measurement": "Decomposition inhibition ratio, %, against glucoamylase", "setting": "glucoamylase; Example 6 / Test Example 5", "value": 28, "unit": "%"}, {"measurement": "Liberated glucose concentration", "setting": "glucoamylase; Example 6 / Test Example 5", "value": 2.028, "unit": "g/L"}, {"measurement": "Liberated glucose concentration", "setting": "[2]; [6]", "value": 0.558, "unit": "g/L"}, {"measurement": "Liberated glucose concentration", "setting": "[2]; 5% saccharide alone, Example 6 / Test Example 5", "value": 0.411, "unit": "g/L"}, {"measurement": "Inhibitory effect on the sucrase activity (reported)", "setting": "[3]", "value": "no inhibitory effect"}]}]}
